In US7138361B2, “Herbicidal heterocycles” (E. I. du Pont de Nemours and Company, priority 2000, dated 2006):

Experiments:
Format in all cases: in vivo
Sunflower = assay: Test C preemergence; conditions: visual evaluation after 12 to 14 days
[1] = system: duck salad (Heteranthera limosa); assay: Test C flooded paddy test; conditions: for Ducksalad plant response rating: Flooded Paddy, scale 0 to 100, 0 no effect, 100 complete control; for Plant response rating, Ducksalad: flooded paddy test, scale 0 to 100 (0 no effect, 100 complete control)
Procedure, shortened: (§1)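 Flooded paddy, 2-leaf stage at treatment. Readout: visual % control vs untreated, 0–100, at 12–14 d in greenhouse.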

[2] = system: smallflower flatsedge (Cyperus difformis); assay: Test C flooded paddy test; conditions: for Flatsedge plant response rating: Flooded Paddy, scale 0 to 100, 0 no effect, 100 complete control; for Plant response rating, Flatsedge: flooded paddy test, scale 0 to 100 (0 no effect, 100 complete control)
Procedure, shortened: as §1

[3] = system: barnyardgrass (Echinochloa crus-galli); assay: Test C flooded paddy test; conditions: for Barnyardgrass plant response rating: Flooded Paddy, scale 0 to 100, 0 no effect, 100 complete control; for Plant response rating, Barnyardgrass: flooded paddy test, scale 0 to 100 (0 no effect, 100 complete control)
Procedure, shortened: as §1

corn (Zea mays) = assay: Test C preemergence; conditions: for Plant response rating, Corn: scale 0 to 100, 0 no effect, 100 complete control; for Plant response rating (0 to 100), Corn: visual evaluation after 12 to 14 days
Excerpt: (§2) Seeds of plant species selected from bermudagrass (Cynodon dactylon), Surinam grass (Brachiaria decumbens), cocklebur (Xanthium strumarium), corn (Zea mays), crabgrass (Digitaria sanguinalis), woolly cupgrass (Eriochloa villosa), giant foxtail (Setaria faberii), goosegrass (Eleusine indica), johnsongrass (Sorghum halepense), kochia (Kochia scoparia), lambsquarters (Chenopodium album), morningglory (Ipomoea hederacea), yellow nutsedge (Cyperus esculentus), pigweed (Amaranthus retroflexus), common ragweed (Ambrosia elatior), soybean (Glycine max) and velvetleaf (Abutilon theophrasti) were planted and treated preemergence with test chemicals formulated in a non-phytotoxic solvent mixture which included a surfactant.
(§3) At the same time, plants selected from these crop and weed species and also winter barley (Hordeum vulgare), blackgrass (Alopecurus myosuroides), canary grass (Phalaris minor), chickweed (Stellaria media), downy brome (Bromus tectorum), green foxtail (Setaria viridis), Italian ryegrass (Lolium multiflorum), wheat (Triticum aestivum), wild oat (Avena fatua) and windgrass (Apera spica-venti) were treated with postemergence applications of some of the test chemicals formulated in the same manner. Plants ranged in height from 2 to 18 cm (1- to 4-leaf stage) for postemergence treatments. Plant species in the flooded paddy test consisted of rice (Oryza saliva), smallflower flatsedge (Cyperus difformis), duck salad (Heteranthera limosa) and barnyardgrass (Echinochloa crus-galli) grown to the 2-leaf stage for testing. Treated plants and controls were maintained in a greenhouse for 12 to 14 days, after which time all species were compared to controls and visually evaluated. Plant response ratings, summarized in Table C, are based on a scale of 0 to 100 where 0 is no effect and 100 is complete control. A dash (-) response means no test result.

[4] = system: woolly cupgrass (Eriochloa villosa); assay: Test C preemergence; conditions: for Plant response rating, Cupgrass, Woolly: scale 0 to 100, 0 no effect, 100 complete control; for Plant response rating (0 to 100), Cupgrass, Woolly: visual evaluation after 12 to 14 days
Excerpt: as §2, §3

[5] = system: cocklebur (Xanthium strumarium); assay: Test C preemergence; conditions: for Plant response rating, Cocklebur: scale 0 to 100, 0 no effect, 100 complete control; for Plant response rating (0 to 100), Cocklebur: visual evaluation after 12 to 14 days
Excerpt: as §2, §3

Nightshade = assay: Test C preemergence; conditions: scale 0 to 100, 0 no effect, 100 complete control
Excerpt: as §2, §3

kochia (Kochia scoparia) = assay: Test C preemergence; conditions: for Plant response rating, Kochia: scale 0 to 100, 0 no effect, 100 complete control; for Plant response rating (0 to 100), Kochia: visual evaluation after 12 to 14 days
Excerpt: as §2, §3

[6] = system: Surinam grass (Brachiaria decumbens); assay: Test C preemergence; conditions: for Plant response rating, Surinam grass: scale 0 to 100, 0 no effect, 100 complete control; for Plant response rating (0 to 100), Surinam grass: visual evaluation after 12 to 14 days
Excerpt: as §2, §3

[7] = system: goosegrass (Eleusine indica); assay: Test C preemergence; conditions: for Plant response rating, Goosegrass: scale 0 to 100, 0 no effect, 100 complete control; for Plant response rating (0 to 100), Goosegrass: visual evaluation after 12 to 14 days
Excerpt: as §2, §3

[8] = system: giant foxtail (Setaria faberii); assay: Test C preemergence; conditions: for Plant response rating, Foxtail, Giant: scale 0 to 100, 0 no effect, 100 complete control
Excerpt: as §2, §3

soybean (Glycine max) = assay: Test C preemergence; conditions: preemergence; for Plant response rating (0 to 100), Soybean: visual evaluation after 12 to 14 days
Excerpt: as §2, §3

[9] = system: velvetleaf (Abutilon theophrasti); assay: Test C preemergence; conditions: preemergence; for Plant response rating (0 to 100), Velvetleaf: visual evaluation after 12 to 14 days
Excerpt: as §2, §3

[10] = system: crabgrass (Digitaria sanguinalis); assay: Test C preemergence; conditions: for Plant response rating, Crabgrass: scale 0 to 100, 0 no effect, 100 complete control; for Plant response rating (0 to 100), Crabgrass: visual evaluation after 12 to 14 days
Excerpt: as §2, §3

[11] = system: pigweed (Amaranthus retroflexus); assay: Test C preemergence; conditions: preemergence; for Plant response rating (0 to 100), Pigweed: visual evaluation after 12 to 14 days
Excerpt: as §2, §3

[12] = system: bermudagrass (Cynodon dactylon); assay: Test C preemergence; conditions: for Plant response rating, Bermudagrass: scale 0 to 100, 0 no effect, 100 complete control; for Plant response rating (0 to 100 where 0 is no effect and 100 is complete control), Bermudagrass: visual evaluation after 12 to 14 days
Excerpt: as §2, §3

[13] = system: johnsongrass (Sorghum halepense); assay: Test C preemergence; conditions: for Plant response rating, Johnsongrass: scale 0 to 100, 0 no effect, 100 complete control; for Plant response rating (0 to 100), Johnsongrass: visual evaluation after 12 to 14 days
Excerpt: as §2, §3

[14] = system: yellow nutsedge (Cyperus esculentus); assay: Test C preemergence; conditions: for Plant response rating, Nutsedge: scale 0 to 100, 0 no effect, 100 complete control; for Plant response rating (0 to 100), Nutsedge: visual evaluation after 12 to 14 days
Excerpt: as §2, §3

[15] = system: morningglory (Ipomoea hederacea); assay: Test C preemergence; conditions: for Plant response rating, Morningglory: scale 0 to 100, 0 no effect, 100 complete control; for Plant response rating (0 to 100), Morningglory: visual evaluation after 12 to 14 days
Excerpt: as §2, §3

[16] = Rate 125 g/ha, scale 0 to 100, 0 no effect, 100 complete control

## CC1(c2ccn(C3OCN(c4cccc(C(F)(F)F)c4)C3=O)n2)CC1 (stereo not drawn) [Compound 62]
Sunflower; Rate 250 g/ha
  Plant response rating (0 to 100), Sunflower: 0
Sunflower; Rate 500 g/ha
  Plant response rating (0 to 100), Sunflower: 0
[1]; Rate 250 g/ha
  Ducksalad plant response rating: 0
[1]; Rate 500 g/ha
  Ducksalad plant response rating: 0
[1]; Rate 62 g/ha
  Plant response rating, Ducksalad: 0
[1]; Rate 125 g/ha
  Plant response rating, Ducksalad: 0
[2]; Rate 250 g/ha
  Flatsedge plant response rating: 90
[2]; Rate 500 g/ha
  Flatsedge plant response rating: 100
[2]; Rate 62 g/ha
  Plant response rating, Flatsedge: 0
[2]; Rate 125 g/ha
  Plant response rating, Flatsedge: 90
[3]; Rate 250 g/ha
  Barnyardgrass plant response rating: 20
[3]; Rate 500 g/ha
  Barnyardgrass plant response rating: 80
[3]; Rate 62 g/ha
  Plant response rating, Barnyardgrass: 0
[3]; Rate 125 g/ha
  Plant response rating, Barnyardgrass: 20
Corn (Zea mays); Rate 62 g/ha
  Plant response rating, Corn: 0
Corn (Zea mays); preemergence, Rate 250 g/ha
  Plant response rating (0 to 100), Corn: 0
Corn (Zea mays); preemergence, Rate 500 g/ha
  Plant response rating (0 to 100), Corn: 20
Corn (Zea mays); preemergence, Rate 125 g/ha
  Plant response rating, Corn: 0
[4]; Rate 62 g/ha
  Plant response rating, Cupgrass, Woolly: 30
[4]; preemergence, Rate 250 g/ha
  Plant response rating (0 to 100), Cupgrass, Woolly: 90
[4]; preemergence, Rate 500 g/ha
  Plant response rating (0 to 100), Cupgrass, Woolly: 90
[4]; preemergence, Rate 125 g/ha
  Plant response rating, Cupgrass, Woolly: 50
[5]; Rate 62 g/ha
  Plant response rating, Cocklebur: 0
[5]; preemergence, Rate 250 g/ha
  Plant response rating (0 to 100), Cocklebur: 0
[5]; preemergence, Rate 500 g/ha
  Plant response rating (0 to 100), Cocklebur: 0
[5]; preemergence, Rate 125 g/ha
  Plant response rating, Cocklebur: 0
Nightshade; Rate 62 g/ha
  Plant response rating, Nightshade: 0
Nightshade; Rate 125 g/ha
  Plant response rating, Nightshade: 0
Kochia (Kochia scoparia); Rate 62 g/ha
  Plant response rating, Kochia: 0
Kochia (Kochia scoparia); preemergence, Rate 250 g/ha
  Plant response rating (0 to 100), Kochia: 90
Kochia (Kochia scoparia); preemergence, Rate 500 g/ha
  Plant response rating (0 to 100), Kochia: 90
Kochia (Kochia scoparia); preemergence, Rate 125 g/ha
  Plant response rating, Kochia: 60
[6]; Rate 62 g/ha
  Plant response rating, Surinam grass: 0
[6]; preemergence, Rate 250 g/ha
  Plant response rating (0 to 100), Surinam grass: 60
[6]; preemergence, Rate 500 g/ha
  Plant response rating (0 to 100), Surinam grass: 80
[6]; preemergence, Rate 125 g/ha
  Plant response rating, Surinam grass: 30
[7]; Rate 62 g/ha
  Plant response rating, Goosegrass: 80
[7]; preemergence, Rate 250 g/ha
  Plant response rating (0 to 100), Goosegrass: 100
[7]; preemergence, Rate 500 g/ha
  Plant response rating (0 to 100), Goosegrass: 100
[7]; preemergence, Rate 125 g/ha
  Plant response rating, Goosegrass: 90
[8]; Rate 62 g/ha
  Plant response rating, Foxtail, Giant: 0
[8]; preemergence, Rate 500 g/ha, visual evaluation after 12 to 14 days
  Plant response rating (0 to 100), Foxtail, Giant: 100
[8]; preemergence, Rate 125 g/ha
  Plant response rating, Foxtail, Giant: 0
Soybean (Glycine max); Rate 250 g/ha
  Plant response rating (0 to 100), Soybean: 0
Soybean (Glycine max); Rate 500 g/ha
  Plant response rating (0 to 100), Soybean: 0
Soybean (Glycine max); [16]
  Plant response rating, Soybean: 0
[9]; Rate 250 g/ha
  Plant response rating (0 to 100), Velvetleaf: 0
[9]; Rate 500 g/ha
  Plant response rating (0 to 100), Velvetleaf: 20
[9]; [16]
  Plant response rating, Velvetleaf: 0
[10]; Rate 62 g/ha
  Plant response rating, Crabgrass: 0
[10]; preemergence, Rate 250 g/ha
  Plant response rating (0 to 100), Crabgrass: 100
[10]; preemergence, Rate 500 g/ha
  Plant response rating (0 to 100), Crabgrass: 100
[10]; preemergence, Rate 125 g/ha
  Plant response rating, Crabgrass: 90
[11]; Rate 250 g/ha
  Plant response rating (0 to 100), Pigweed: 0
[11]; Rate 500 g/ha
  Plant response rating (0 to 100), Pigweed: 100
[11]; [16]
  Plant response rating, Pigweed: 0
[12]; Rate 62 g/ha
  Plant response rating, Bermudagrass: 40
[12]; preemergence, Rate 250 g/ha
  Plant response rating (0 to 100 where 0 is no effect and 100 is complete control), Bermudagrass: 100
[12]; preemergence, Rate 500 g/ha
  Plant response rating (0 to 100 where 0 is no effect and 100 is complete control), Bermudagrass: 100
[12]; preemergence, Rate 125 g/ha
  Plant response rating, Bermudagrass: 70
[13]; Rate 62 g/ha
  Plant response rating, Johnsongrass: 20
[13]; preemergence, Rate 250 g/ha
  Plant response rating (0 to 100), Johnsongrass: 60
[13]; preemergence, Rate 500 g/ha
  Plant response rating (0 to 100), Johnsongrass: 100
[13]; preemergence, Rate 125 g/ha
  Plant response rating, Johnsongrass: 40
[14]; Rate 62 g/ha
  Plant response rating, Nutsedge: 0
[14]; preemergence, Rate 250 g/ha
  Plant response rating (0 to 100), Nutsedge: 20
[14]; preemergence, Rate 500 g/ha
  Plant response rating (0 to 100), Nutsedge: 70
[14]; preemergence, Rate 125 g/ha
  Plant response rating, Nutsedge: 0
[15]; Rate 62 g/ha
  Plant response rating, Morningglory: 0
[15]; preemergence, Rate 250 g/ha
  Plant response rating (0 to 100), Morningglory: 0
[15]; preemergence, Rate 500 g/ha
  Plant response rating (0 to 100), Morningglory: 0
[15]; preemergence, Rate 125 g/ha
  Plant response rating, Morningglory: 0
